What was measured:
[1] = molecular target: voltage-gated K+ channel KCNQ2 (Homo sapiens, UniProt O43526); assay: Thallium flux assay for openers of KCNQ potassium channels; format: cell-based; settings: 10 point concentration series, 50% of the maximal response
Description: A thallium flux assay was used to detect and characterize openers of KCNQ potassium channels. The thallium assay is generally described in International application WO 02/31508 published Apr. 18, 2002. More specifically, the thallium influx assay to detect compounds that block or open the voltage-gated K^+ channel KCNQ2 is described in Example IV of the published WO 02/31508 application.
For data analysis, the amplitude of the average of the negative controls was subtracted from all wells. The amplitudes of the test compounds were then compared to the value of four standard deviations of the negative control wells. The lowest concentration of a test compound sufficient to generate a signal amplitude greater than or equal to four standard deviations from the amplitude of the negative controls was defined as the minimal active concentration.
For generating EC50 values, compounds were serially diluted in 1:3 volume increments to produce a 10 point concentration series. EC50 values were calculated by fitting the resulting amplitudes to a single-site logistic equation. EC50 was defined as the concentration of test compound required to yield 50% of the maximal response. Maximal response (Maximal opening) was the largest signal amplitude above the negative control generated by any concentration of a test compound.

mKCNQ2 channels = molecular target: T1, mKCNQ2 channels (Mus musculus, UniProt Q9Z351); assay: Whole-cell patch-clamp recordings of mKCNQ2 currents; format: cell-based; settings: HEK 293 stable cell line expressing mKCNQ2
T1 construct: expressed in transfected cells
Protocol: Whole-cell patch-clamp recordings were made from an HEK 293 stable cell line expressing mKCNQ2 channels, maintained in culture for 1–2 days. Patch pipettes had initial resistances of 2.5–4 MΩ. Currents were recorded with an EPC-9 amplifier (HEKA, Lambrecht, Germany) controlled with software (Pulse, HEKA) run on a standard lab PC. Series resistance compensation was used during current recording, and set at 80%. The series resistance (R) and cell capacitance (C) were determined electronically by subtracting the capacitive currents at the onset and offset of a 5 mV voltage step. The cancellation of whole-cell capacitive transients was virtually complete in all cells. Analog current signals were low-pass filtered at 2.9 kHz using a four-pole Bessel filter −3 dB) and stored on a local network server computer at a sampling rate of […]. All recordings were performed at room temperature (20–22° C.). The pipette solution contained (mM): KCl, 150; CaCl2, 2.5; EGTA, 5; MgCl2, 1; HEPES, 10; pH to 7.3 with KOH, and Osmolality of 290–300 mOsm. The extracellular solution contained (mM): NaCl, 140; KCl, 2.5; CaCl2, 2.5; MgCl2, 1; glucose, 10; HEPES, 10; pH to 7.3 with NaOH, and Osmolality of 305–310 mOsm […]

Compound | EC50 [1] | EC50 (mKCNQ2 channels; @ −40 mV, room temperature) | Imax (%) (mKCNQ2 channels; Imax from Hill-type curve fit)
O=C(N[C@@H](CO)c1ccc2ccccc2c1)C1CC1c1cc(F)ccc1F (stereo partly drawn) [Example 14, 2-(2,5-Difluoro-phenyl)-cyclopropanecarboxylic acid(2-hydroxy-1-naphthalen-2-yl-ethyl)-amide] | 1 nM | – | –
O=C(N[C@@H](CO)c1ccc2ccccc2c1)C1CC1c1ccccc1Cl (stereo partly drawn) [Example 9, 2-(2-Chloro-phenyl)-cyclopropanecarboxylic acid(2-hydroxy-1-naphthalen-2-yl-ethyl)-amide] | 22 nM | – | –
O=C(N[C@@H](CO)c1ccc2ccccc2c1)C1CC1c1ccccc1F (stereo partly drawn) [Example 11, 2-(2-Fluoro-phenyl)-cyclopropanecarboxylic acid(2-hydroxy-1-naphthalen-2-yl-ethyl)-amide] | 1440 nM | – | –
O=C(N[C@@H](CO)c1ccc2ccccc2c1)C1CC1c1ccccc1 (stereo partly drawn) [Example 15, 2-(phenyl)-cyclopropanecarboxylic acid(2-hydroxy-1-naphthalen-2-yl-ethyl)-amide] | 1 nM | – | –
C[C@H](NC(=O)[C@@H]1C[C@H]1c1ccccc1)c1cccc(-c2cccnc2)c1 [Example 32, (S)-2-Phenyl-cyclopropanecarboxylicacid [1-(3-pyridin-3-yl-phenyl)-ethyl]-amide] | 1 nM | – | –
O=C(N[C@@H](CO)c1ccc2ccccc2c1)C1CC1c1ccc(F)cc1 (stereo partly drawn) [Example 13, 2-(4-Fluoro-phenyl)-cyclopropanecarboxylic acid(2-hydroxy-1-naphthalen-2-yl-ethyl)-amide] | 12 nM | 0.597 µM | 1232%
C[C@H](NC(=O)C1CC1c1cccc(F)c1)c1cccc(-c2ccc(Cl)nc2)c1 (stereo partly drawn) [Example 34, (S)-2-(3-Fluoro-phenyl)-cyclopropanecarboxylicacid {1-[3-(6-chloro-pyridin-3-yl)-phenyl]-ethyl}-amide] | 2210 nM | – | –
